Assay results: patent US20060013804A1, “Modulation of stem cell differentiation by modulation of caspase-3 activity” (Ottawa Health Research Institute, priority 2002, published 2006)

Test system: p38α
Test: Immunoprecipitation/kinase assay of p38α from neurospheres
Type: cell-based, mouse
Details: differentiation media under caspase 3 inhibition
Description: Immunoprecipitation/Kinase activity assays: Immunoprecipitation/kinase analyses were performed as previously described (Fernando, P., et al., (2002) Proc Natl Acad Sci USA 99, 11025-11030). Cellular lysates from neurospheres were generated as described above. Antibodies against apoptotic signal-regulating kinase 1 (ASK1) (Upstate, USA), p21 activated kinase 1 (PAK1) (Cell Signaling Technologies, USA), and p38 MAPK (Santa Cruz, USA) were used to immunoprecipitate respective proteins. Samples were mixed with Protein G-sepharose beads for 1 h, washed and then mixed with kinase assay buffer containing myelin basic protein (MBP) and γ-32P[ATP]. Samples were reacted at 30° C. for 30 min and separated using SDS-PAGE. In some instances, samples were transferred to PVDF membrane following electrophoresis. To quantify kinase activities, MBP acrylamide bands were excised and solubilized in scintillation fluid prior to 32P-liquid scintillation analyses. In all cases, an activated recombinant mitogen activated protein kinase activated protein-2 (MAPKAP kinase-2) (Upstate, USA) was used as an internal control for liquid scintillation analyses.
ASK1 activity was reduced when cells were treated with differentiation media containing z-DEVD (DEVD condition) compared to differentiation media alone (DMSO condition) (FIG. 19c,d). Both PAK1 and ASK1 have been linked to the downstream activity of p38 MAPK. […]

SMILES: COC(=O)CC[C@H](NC(=O)[C@H](CC(=O)OC)NC(=O)OCc1ccccc1)C(=O)N[C@H](C(=O)N[C@@H](CC(=O)OC)C(=O)CF)C(C)C [z-DEVD.fmk]
- p38α kinase activity: very low levels of p38α kinase activity
